# From US9096832B2, “Differentiation of human embryonic stem cells” (LifeScan, Inc., priority 2007, dated 2015)
# B1: FGF10: fibroblast growth factor FGF10, 50 ng/ml (protein, UniProt O15520 38-208, looked up)
# Fibroblast growth factor 10: QALGQDMVSPEATNSSSSSFSSPSSAGRHVRSYNHLQGDVRWRKLFSFTKYFLKIEKNGKVSGTKKENCPYSILEITSVEIGVVAVKAINSNYYLAMNKKGKLYGSKEFNNDCKLKERIEENGYNTYASFNWQHNGRQMYVALNGKGAPRRGQKTRRKNTSAHFLPMVVHS
# B2: Group 2: Activin A (100 ng/ml) (protein, UniProt P08476 311-426, looked up)
# Inhibin beta A chain: GLECDGKVNICCKKQFFVSFKDIGWNDWIIAPSGYHANYCEGECPSHIAGTSGSSLSFHSTVINHYRMRGHSPFANLKSCCVPTKLRPMSMLYYDDGQNIIKKDIQNMIVEECGCS
# B3: Wnt 5a: Wnt ligand, Catalog#654-WN-010, R&D Systems (protein, UniProt P22725 62-380, looked up)
# Protein Wnt-5a: IIGAQPLCSQLAGLSQGQKKLCHLYQDHMQYIGEGAKTGIKECQYQFRHRRWNCSTVDNTSVFGRVMQIGSRETAFTYAVSAAGVVNAMSRACREGELSTCGCSRAARPKDLPRDWLWGGCGDNIDYGYRFAKEFVDARERERIHAKGSYESARILMNLHNNEAGRRTVYNLADVACKCHGVSGSCSLKTCWLQLADFRKVGDALKEKYDSAAAMRLNSRGKLVQVNSRFNSPTTQDLVYIDPSPDYCVRNESTGSLGTQGRLCNKTSEGMDGCELMCCGRGYDQFKTVQTERCHCKFHWCCYVKCKKCTEIVDQFVCK
# B4: Wnt-7a: Wnt ligand, Catalog#3008-WN-025, R&D Systems (protein, UniProt O00755 32-349, looked up)
# Protein Wnt-7a: LGASIICNKIPGLAPRQRAICQSRPDAIIVIGEGSQMGLDECQFQFRNGRWNCSALGERTVFGKELKVGSREAAFTYAIIAAGVAHAITAACTQGNLSDCGCDKEKQGQYHRDEGWKWGGCSADIRYGIGFAKVFVDAREIKQNARTLMNLHNNEAGRKILEENMKLECKCHGVSGSCTTKTCWTTLPQFRELGYVLKDKYNEAVHVEPVRASRNKRPTFLKIKKPLSYRKPMDTDLVYIEKSPNYCEEDPVTGSVGTQGRACNKTAPQASGCDLMCCGRGYNTHQYARVWQCNCKFHWCCYVKCNTCSERTEMYTCK
# B5: Wnt-5b: Wnt ligand, Catalog#3006-WN-025, R&D Systems (protein, UniProt Q9H1J7 18-359, looked up)
# Protein Wnt-5b: QLLTDANSWWSLALNPVQRPEMFIIGAQPVCSQLPGLSPGQRKLCQLYQEHMAYIGEGAKTGIKECQHQFRQRRWNCSTADNASVFGRVMQIGSRETAFTHAVSAAGVVNAISRACREGELSTCGCSRTARPKDLPRDWLWGGCGDNVEYGYRFAKEFVDAREREKNFAKGSEEQGRVLMNLQNNEAGRRAVYKMADVACKCHGVSGSCSLKTCWLQLAEFRKVGDRLKEKYDSAAAMRVTRKGRLELVNSRFTQPTPEDLVYVDPSPDYCLRNESTGSLGTQGRLCNKTSEGMDGCELMCCGRGYNQFKSVQVERCHCKFHWCCFVRCKKCTEIVDQYICK
# Tests used:
# [1] = system: human embryonic stem cell line H9; experiment: Formation of pancreatic endocrine cells with gamma-secretase inhibitor L-685,458 (PCR); assay type: cell-based
# Description: After this time interval, the cells were then treated for six days with combinations of retinoic acid and FGF as outlined in Example 2, then the culture medium was removed and replaced with medium comprising DMEM/F12 with 2% FBS, containing the γ-secretase inhibitors L-685,458 at 10 μM for three days.
# Final data were expressed relative to a calibrator sample.
# [2] = system: H1P54 ES cells; experiment: Evaluation of various GSK-3B inhibitors in DE formation (real-time PCR); assay type: cell-based, human; conditions: 100 nM for first two days, compared to GSK-3B inhibitor VIII and XII
# Description: The effectiveness of a number of commercially available GSK-3B inhibitors was evaluated in formation of DE from human embryonic stem cells. The following GSK-3B inhibitors were evaluated at 100 nM: GSK-3B inhibitor VIII (Catalog#361549, Calbiochem, CA), GSK-3B inhibitor IX (Catalog#361550, Calbiochem, CA), GSK-3B inhibitor XI (Catalog#361553, Calbiochem, CA), GSK-3B inhibitor XII (Catalog#361554, Calbiochem, CA). […] Control cultures were treated with low serum plus high dose of AA. FIG. 47, panels a and b depicts the gene expression of definitive endoderm markers at day 5. GSK-3B inhibitor IX and XI were both effective in inducing DE formation as compared to GSK-3B inhibitor VIII and XII.
# [3] = system: H9P49 embryonic stem cells; experiment: Pancreatic endoderm under feeder-free conditions: retinoic acid analogues (real-time PCR); assay type: cell-based, human
# Description: At day 5, cells were collected for evaluation by FACS and real-time PCR. […] The resulting definitive endoderm cells at day 5 were exposed to the following media conditions to induce pancreatic endoderm formation: culturing in DMEM/F12 media supplemented with 2% FBS and 1 μM all-trans retinoic acid (RA) (Catalog#R2625, Sigma, MO), or 0.1-10 μM AM-580 (4-[(5,6,7,8-Tetrahydro-5,5,8,8-tetramethyl-2-naphthalenyl)carboxamido]benzoic acid, Catalog#A8843, Sigma, MO), or 0.1-1 μM TTNPB (4-[(E)-2-(5,6,7,8-Tetrahydro-5,5,8,8-tetramethyl-2-naphthalenyl)-1-propenyl]benzoic acid Arotinoid acid, Catalog#T3757, Sigma, MO) for 3 days. AM-580 and TTNPB are retinoic acid analogs with affinity for retinoic acid receptors. RA treatment was followed by additional three day treatment in DMEM/F 12 media supplemented with 2% FBS and 20-50 ng/ml bFGF (Catalog#F0291, Sigma, MO).
# [4] = system: human embryonic stem cell line H9; conditions: activin A or retinoic acid alone
# Description: Cultures were harvested and samples of mRNA were collected for analysis.
# Cells seeded on 0.1% Matrigel (BD) coated dishes were fixed with 4% paraformaldheyde for 20 min at room temperature. Fixed cells were blocked for 1 h at room temperature with PBS/0.1%BSA/10% normal chick serum /0.5% Triton X-100 and then incubated overnight with primary antibodies in PBS/0.1%BSA/10% normal chick serum at 4° C. After three washes in PBS/0.1% BSA, fluorescent secondary antibodies at a 1:100 dilution in PBS were incubated with cells for 1 h at room temperature to allow binding. Control samples included reactions where the primary antibody was omitted or where the primary antibody was replaced with corresponding matched negative control immunoglobulins at the same concentration as the primary antibodies. […]
# Real-time PCR amplification and quantitative analysis: Unless otherwise stated, all reagents were purchased from Applied Biosystems. […] For each primer/probe set, a Ct value was determined as the cycle number at which the fluorescence intensity reached a specific value in the middle of the exponential region of amplification. Relative gene expression levels were calculated using the comparative Ct method. […] The normalized amount of target was calculated as 2-ΔCt, assuming amplification to be 100% efficiency. […]
# [5] = system: H9P44 cells; experiment: Definitive endoderm on MEFs: growth factor combinations in low serum (FACS CXCR4, RT-PCR; Table V); assay type: cell-based, human; conditions: H9P44 on MEF, Day 3, normalized to Group 1 (control)
# Description: H9P44 cells were plated onto 6 well plates previously coated with mitomycin treated mouse embryonic fibroblasts (MEF). Cells were grown until 70 to 80% confluency in ES cell medium consisting of DMEM/F12 (Invitrogen/GIBCO) supplemented with 20% knockout serum replacement, 100 nM MEM nonessential amino acids, 0.5 mM beta-mercaptoethanol, 2 mM L-glutamine (all from Invitrogen/GIBCO) and 8 ng/ml human basic fibroblast growth factor (bFGF) (R&D Systems).
# Growth factors were added to increasing concentration of FBS in a stepwise manner as indicated in the following regimen: • Day 0: 0% FBS in DMEM/F12 • Day 1: 0.5% FBS in DMEM/F12 • Day 2: 2% FBS in DMEM/F12. • Day 3: Cells were harvested for FACS analysis and RT-PCR.
# All growth factors were purchased from R&D Systems, MN. A detailed description and concentration of growth factors for each treatment group is shown below. • 1. Control—No growth factor added • 2. […] IL-4 (10 ng/ml) • 10. SDF1a (20 ng/ml) • 11. […] BMP2 (100 ng/ml)+BMP-4 (100 ng.ml)+BMP-6 (100 ng/ml)+BMP-7 (100 ng/ml) • 13.
# Cells were harvested on Day 3 of DE protocol treatment. For analysis, an aliquot of treated cells was used for RNA preparation for RT-PCR and the rest of cells used for FACS analysis.
# For RT-PCR analysis, cells were analyzed for expression of selected panel of definitive endoderm markers.
# [6] = system: H9P46-P48 embryonic stem cells; experiment: Definitive endoderm on […]: effect of GSK-3B inhibitor IX (FACS CXCR4, PCR); assay type: cell-based, human; conditions: day 5
# Description: In order to confirm that the effect of Wnt-3a was through the Wnt pathway, a GSK-3 inhibitor was used to activate the downstream targets of Wnt, such as beta catenin. […] FIG. 29, panel a depicts the expression of CXCR4 by FACS at day 5 in the absence of Wnt-3a or GSK-3B inhibitor, b) +20 ng/ml Wnt-3a, c) +1000 nM GSK-3B inhibitor IX, d) +500 nM GSK-3B inhibitor IX, e) +100 nM GSK-3B inhibitor IX, f) +10 nM GSK-3B inhibitor IX, g) +100 nM GSK-3B inhibitor IX for days 1-2, and h) +10 nM GSK-3B inhibitor IX for days 1-2.
# [7] = system: human embryonic stem cell line H1 at passage 55; experiment: Definitive endoderm on human serum coated plates (real-time PCR); assay type: cell-based; conditions: with activin A, vs activin A only
# Description: Cultures of the human embryonic stem cell line H1 at passage 55 were grown and differentiated on human serum (Sigma, #H1388, MO) coated plates. 0.5 ml of human serum was added to each well of 6 well tissue culture treated dish, incubated for 1 hr at room temperature, and aspirated before adding human embryonic stem cells. […] These findings parallel our findings for human embryonic stem cells cultured on […]™ or human fibronectin coated plates.
# [8] = system: pancreatic endoderm cells derived from human embryonic stem cells; experiment: Passage and expansion of pancreatic endoderm cells in culture with FGF10 (Q-PCR); assay type: cell-based; conditions: 50 ng/ml FGF10, 6 day culture period
# Description: The low serum DMEM/F12 contained 0% (v/v) fetal bovine serum (FBS) on day 1, 0.5% (v/v) FBS on day two and 2% (v/v) FBS on each day thereafter. After four days of differentiation, the cells were cultured in low serum DMEM/F12 contained 2% (v/v) FBS, 1 μM retinoic acid and 50 ng/ml bFGF for a total of six more days. After the six days of differentiation, the cells were maintained in culture in low serum DMEM/F12 contained 2% (v/v) FBS in the presence of 50 ng/ml FGF10 for a total of 6 days. During the six-day culture period, the pancreatic endoderm cells were passaged twice and cell population-doubling time is about 36 to 48 hours during this 6-day culture. On days 0, 3, and 6 of culture, Q-PCR was used to measure the expression of marker genes indicative of pancreatic endoderm.
# [9] = system: H7P44 and H9P46 embryonic stem cells; experiment: Definitive endoderm on […]: role of Wnt ligands (FACS CXCR4, real-time PCR); assay type: cell-based, human; conditions: low serum+AA+/-Wnt ligands, H7 and H9, five days
# Description: In some of the cultures 20 ng/ml Wnt-3a (Catalog#1324-WN-002, R&D Systems, MN), 20 ng/ml Wnt-5a (Catalog#654-WN-010, R&D Systems, MN), 25 ng/ml Wnt-7a (Catalog#3008-WN-025, R&D Systems, MN), or 25 ng/ml Wnt-5b (Catalog#3006-WN-025, R&D Systems, MN) was added throughout the five day treatment. FIG. 24 depicts phase contrast images of H9P46 definitive endoderm culture in the presence of high concentration of (a) AA or (b) AA+20 ng/ml Wnt-3a. FIG. 25 depicts the expression of CXCR4 by FACS at day 5 for H7P44, and H9P46 lines cultured on […]™ (1:30 dilution) and exposed to the DE protocol+Wnt-3a (FIG. 25, panels b and d) and −Wnt-3a (FIG. 25, panels a and c).
molecule,measurement,setting,value
"CC(C)C[C@H](NC(=O)[C@H](Cc1ccccc1)C[C@@H](O)[C@H](Cc1ccccc1)NC(=O)OC(C)(C)C)C(=O)N[C@@H](Cc1ccccc1)C(N)=O [L-685,458]",NeuroD1 expression,"[1]; L-685,458 10 μM",increased further
same,expression of Hes-1,"[1]; L-685,458 10 μM",decrease
same,time of maximal inhibition of Hes-1 expression,"[1]; L-685,458 10 μM",day three post treatment
same,Ngn3 expression relative to activin A alone or retinoic acid with FGFs,"[1]; L-685,458 10 μM for three days",approximately 50 fold
same,increase of insulin expression,"[1]; L-685,458 10 μM for three days",70 fold
O=C1NC(=O)C(c2cn(CCCO)c3ncccc23)=C1c1cnccn1 [GSK-3B inhibitor XI],inducing DE formation,[2],effective
"CC1=C(/C=C/C(C)=C/C=C/C(C)=C/C(=O)O)C(C)(C)CCC1 [retinoic acid, all-trans retinoic acid]","foregut endoderm markers, such as CDX-2 and AFP",[3]; 1 μM RA followed by bFGF,robust expression
same,"pancreatic endoderm markers, such as PDX-1",[3]; 1 μM RA followed by bFGF,significantly upregulates
same,expression of Pdx1,[4],did not induce
Group 9: IL-4 (10 ng/ml),CXCR4 relative expression,[5],1.4
same,Goosecoid relative expression,[5],0.9
same,HNF-3B relative expression,[5],0.89
same,Oct-4 relative expression,[5],0.85
same,SOX-2 relative expression,[5],1.2
same,Sox17 relative expression,[5],1
O=C1Nc2cc(Br)ccc2/C1=C1/Nc2ccccc2/C1=N\O [GSK-3B inhibitor IX],number of CXCR4 positive cells,[6]; 20 ng/ml Wnt-3a or 100-1000 nM GSK-3B inhibitor,significantly increased
same,expression of CXCR4 by FACS,[6]; 10 nm GSK-3B inhibitor,very low
same,expression of definitive endoderm markers,[7],Robust expression
same,inducing DE formation,[2],effective
"CC1(C)CCC(C)(C)c2cc(C(=O)Nc3ccc(C(=O)O)cc3)ccc21 [AM-580, 4-[(5,6,7,8-Tetrahydro-5,5,8,8-tetramethyl-2-naphthalenyl)carboxamido]benzoic acid]",AFP and CDX-2 expression,[3]; 10 μM AM-580,suppressed
same,expression of PDX-1,[3]; 10 μM AM-580,maintaining a high expression
B1,expression of pancreatic endoderm marker Pdx1,[8],maintained expression
B2,CXCR4 relative expression,[5],19.5
same,Goosecoid relative expression,[5],2.8
same,HNF-3B relative expression,[5],0.64
same,Oct-4 relative expression,[5],1.1
same,SOX-2 relative expression,[5],0.91
same,Sox17 relative expression,[5],45
B3,expression of definitive endoderm markers (real-time PCR),[9],minimal impact
B4,expression of definitive endoderm markers (real-time PCR),[9],minimal impact
B5,expression of definitive endoderm markers (real-time PCR),[9],minimal impact
